Test system: ARPE-19 cells
Test: Effect of AZD103 on Aβ1-42-induced VEGF secretion in ARPE-19 cells (VEGF ELISA)
Assay type: cell-based, human
Source text: The potential of AZD-103 to neutralize the effects of Aβ on VEGF expression by RPE cells was investigated using the following materials and methods.
Materials: Human VEGF Duoset, 2nd Generation was obtained from R & D Systems [# DY293B]. 3,3′,5,5′-Tetramethylbenzidine Liquid Substrate (TMB) was obtained from Sigma [# S8865]. The stop solution for TMB was also obtained from Sigma [# S5814]. Tween-20 was obtained from Fisher [# BP 337-500]; Probumin was obtained from Millipore [#82-045-1]; and, 10× Phosphate Buffered Saline (PBS) was obtained from Roche [#11666789001]. […] The Media was then assessed for levels of VEGF by ELISA (R&D Systems, Minneapolis, Minn.) VEGF ELISA: Conditioned media collected from cell cultures grown in the presence or absence of Aβ1-42 and AZD103 were tested for vascular endothelial growth factor (VEGF) expression using a human VEGF duoset ELISA development kit as described by the manufacturer (R &D systems). […] The reaction was stopped and the colour development was read spectrophotometrically at a wavelength of 450 nm.

**Q.** How did the “amount of secreted VEGF” value (ARPE-19 cells (1.5×10^4), Aβ1-42 oligomers pre-incubated 2 hours at 37° C. with AZD103 at weight ratios 1:0.5, 1:1, 1:2, 24 Hr treatment, serum-free medium, ELISA) turn out when `O[C@H]1[C@H](O)[C@@H](O)[C@H](O)[C@@H](O)[C@@H]1O` [AZD103] was run?
**A.** effective towards reducing the amount of secreted VEGF

**Q.** What about the “VEGF expression by RPE cells in presence of Aβ, compared to basal levels (absence of Aβ)” value (ARPE-19 cells, expressed as comparison to Normal ARPE-19 cells that received no treatment) of the same compound?
**A.** returned to basal levels

— patent publication US20100168250A1, “USE OF CYCLOHEXANEHEXOL DERIVATIVES IN THE TREATMENT OF OCULAR DISEASE” (priority 2007, published 2010)
